{"source": "patent US12344600B2", "about": "“c-Myc mRNA translation modulators and uses thereof in the treatment of cancer” (Anima Biotech Inc., priority 2022, dated 2025)", "tested_on": "c-Myc", "test": "c-Myc immunofluorescence assay", "type": "cell-based, human", "conditions": "A549 cells, 24 hours, anti-c-Myc immunofluorescence", "experimental": "A549 human non-small cell lung carcinoma cells were treated for 24 hours with increasing compound concentration, cells were fixed and stained with a nuclei stain (DAPI) and anti-c-Myc fluorescent antibody. The c-Myc signal was quantified by image analysis, and data was exported and analyzed using TIBCO Spotfire® (TIBCO Corporation). Dose response curves were generated and fitted with logaristic regression to calculate potency (EC50 values). Potency values are presented in Table 2 for all compounds and are shown for selected compounds (FIG. 3).\nA549 cells were grown in 384-wells plates (Perkin Elmer, Cat. 6057300) for 48 hours, treated with compounds and then fixed for 20 min in 4% paraformaldehyde. After that permeabilization was done using 0.1% Triton X-100 in PBS for 20 min. Primary anti-c-Myc antibody (Abcam, ab32072) staining was performed for 90 min at room temperature. Cells then were washed twice with PBS and incubated with secondary antibody (Abcam, ab150075) for 90 min at room temperature. Nuclei were stained with DAPI for 10 min and washed twice with PBS.\nCell images were taken with Operetta (Perkin Elmer, USA), a wide-field fluorescence microscope at 20× magnification. After acquisition, the images were transferred to Columbus software (Perkin-Elmer) for image analysis. In Columbus, cells were identified by their nucleus, using the “Find Nuceli” module and cytoplasm was detected based on the secondary antibody channel. Subsequently, the fluorescent signal was enumerated in the identified cell region. Then data was exported to a data analysis and visualization software, Tibco Spotfire, USA.", "data": [{"compound": "COc1ccc(-c2noc(N3CCC(C(=O)NCC4CCN(Cc5ncccc5F)C4)CC3)n2)cc1", "note": "(stereo not shown) [Compound 334, N-((1-((3-fluoropyridin-2-yl)methyl)pyrrolidin-3-yl)methyl)-1-(3-(4-methoxyphenyl)-1,2,4-oxadiazol-5-yl)piperidine-4-carboxamide]", "values": [{"measurement": "Myc Efficacy (−LogEC50)", "value": "+ (+ >3 and <5)"}]}, {"compound": "COc1ccc(-c2noc(N3CCN(C(=O)NCC4CCN(C)C4)CC3)n2)cc1", "note": "(stereo not shown) [Compound 206, 4-(3-(4-methoxyphenyl)-1,2,4-oxadiazol-5-yl)-N-((1-methylpyrrolidin-3-yl)methyl)piperazine-1-carboxamide]", "values": [{"measurement": "Myc Efficacy (−LogEC50)", "value": "+ (+ >3 and <5)"}]}, {"compound": "COc1ccc(-c2noc(N3CCC(C(=O)NCCCN4CCCCC4)CC3)n2)cc1", "note": "[Compound 101, 1-(3-(4-methoxyphenyl)-1,2,4-oxadiazol-5-yl)-N-(3-(piperidin-1-yl)propyl)piperidine-4-carboxamide]", "values": [{"measurement": "Myc Efficacy (−LogEC50)", "value": "+ (+ >3 and <5)"}]}, {"compound": "COc1ccc(-c2noc(N3CCC(C(=O)NC4CC5(C4)CN(C)C5)CC3)n2)cc1", "note": "[Compound 271, 1-(3-(4-methoxyphenyl)-1,2,4-oxadiazol-5-yl)-N-(2-methyl-2-azaspiro[3.3]heptan-6-yl)piperidine-4-carboxamide]", "values": [{"measurement": "Myc Efficacy (−LogEC50)", "value": "+ (+ >3 and <5)"}]}, {"compound": "COc1ccc(-c2noc(N3CCC(C(=O)NC[C@H]4CCN(C[C@H]5CCCN(C)C5)C4)CC3)n2)cc1", "note": "[Compound 465, 1-(3-(4-methoxyphenyl)-1,2,4-oxadiazol-5-yl)-N-(((R)-1-(((S)-1-methylpiperidin-3-yl)methyl)pyrrolidin-3-yl)methyl)piperidine-4-carboxamide]", "values": [{"measurement": "Myc Efficacy (−LogEC50)", "value": "+ (+ >3 and <5)"}]}, {"compound": "COc1ccc(-c2noc(N3CCN(C(=O)Nc4ccccc4Cl)CC3)n2)cc1", "note": "[Compound 195, N-(2-chlorophenyl)-4-(3-(4-methoxyphenyl)-1,2,4-oxadiazol-5-yl)piperazine-1-carboxamide]", "values": [{"measurement": "Myc Efficacy (−LogEC50)", "value": "+ (+ >3 and <5)"}]}, {"compound": "COc1ccc(-c2noc(N3CCC(C(=O)NCCCc4ccccc4)CC3)n2)cc1", "note": "[Compound 129, 1-(3-(4-methoxyphenyl)-1,2,4-oxadiazol-5-yl)-N-(3-phenylpropyl)piperidine-4-carboxamide]", "values": [{"measurement": "Myc Efficacy (−LogEC50)", "value": "+ (+ >3 and <5)"}]}, {"compound": "COc1ccc(-c2noc(C3CCC(C(=O)NCC4CC(=O)N(C)C4)CC3)n2)cc1", "note": "(stereo not shown) [Compound 229, (1r,4r)-4-(3-(4-methoxyphenyl)-1,2,4-oxadiazol-5-yl)-N-((1-methyl-5-oxopyrrolidin-3-yl)methyl)cyclohexane-1-carboxamide]", "values": [{"measurement": "Myc Efficacy (−LogEC50)", "value": "+ (+ >3 and <5)"}]}, {"compound": "COc1ccc(-c2noc(N3CCC(C(=O)NCC4CCN(Cc5cccnc5C)C4)CC3)n2)cc1", "note": "(stereo not shown) [Compound 380, 1-(3-(4-methoxyphenyl)-1,2,4-oxadiazol-5-yl)-N-((1-((2-methylpyridin-3-yl)methyl)pyrrolidin-3-yl)methyl)piperidine-4-carboxamide]", "values": [{"measurement": "Myc Efficacy (−LogEC50)", "value": "++ (++ ≥5 and <6)"}]}, {"compound": "COc1ccc(-c2noc(N3CCC(C(=O)NCC4CCN(CC5CCCC5)C4)CC3)n2)cc1", "note": "(stereo not shown) [Compound 323, N-((1-(cyclopentylmethyl)pyrrolidin-3-yl)methyl)-1-(3-(4-methoxyphenyl)-1,2,4-oxadiazol-5-yl)piperidine-4-carboxamide]", "values": [{"measurement": "Myc Efficacy (−LogEC50)", "value": "++ (++ ≥5 and <6)"}]}, {"compound": "COc1ccc(-c2noc(N3CCC(C(=O)NCC4CCN(Cc5occc5C)C4)CC3)n2)cc1", "note": "(stereo not shown) [Compound 406, 1-(3-(4-methoxyphenyl)-1,2,4-oxadiazol-5-yl)-N-((1-((3-methylfuran-2-yl)methyl)pyrrolidin-3-yl)methyl)piperidine-4-carboxamide]", "values": [{"measurement": "Myc Efficacy (−LogEC50)", "value": "+ (+ >3 and <5)"}]}, {"compound": "COc1ccc(-c2noc(N3CCC(C(=O)NC[C@H]4CC(C)(C)O4)CC3)n2)cc1", "note": "[Compound 272, (R)-N-((4,4-dimethyloxetan-2-yl)methyl)-1-(3-(4-methoxyphenyl)-1,2,4-oxadiazol-5-yl)piperidine-4-carboxamide]", "values": [{"measurement": "Myc Efficacy (−LogEC50)", "value": "+ (+ >3 and <5)"}]}, {"compound": "Cc1ccc(CN2CCC(CNC(=O)C3CCN(c4nc(-c5ccc(Cl)cc5)no4)CC3)C2)cc1", "note": "(stereo not shown) [Compound 154, 1-(3-(4-chlorophenyl)-1,2,4-oxadiazol-5-yl)-N-((1-(4-methylbenzyl)pyrrolidin-3-yl)methyl)piperidine-4-carboxamide]", "values": [{"measurement": "Myc Efficacy (−LogEC50)", "value": "++ (++ ≥5 and <6)"}]}, {"compound": "COc1ccc(-c2noc(N3CCC(C(=O)N4CCC(OC)CC4)CC3)n2)cc1", "note": "[Compound 134, (1-(3-(4-methoxyphenyl)-1,2,4-oxadiazol-5-yl)piperidin-4-yl)(4-methoxypiperidin-1-yl)methanone]", "values": [{"measurement": "Myc Efficacy (−LogEC50)", "value": "+ (+ >3 and <5)"}]}, {"compound": "COc1ccc(-c2cccc(N3CCC(C(=O)NCC4CCN(Cc5ccc(C)cc5)C4)CC3)c2)cc1", "note": "(stereo not shown) [Compound 171, 1-(4′-methoxy-[1,1′-biphenyl]-3-yl)-N-((1-(4-methylbenzyl)pyrrolidin-3-yl)methyl)piperidine-4-carboxamide]", "values": [{"measurement": "Myc Efficacy (−LogEC50)", "value": "++ (++ ≥5 and <6)"}]}, {"compound": "COc1ccc(-c2noc(N3CCC(C(=O)NC[C@@H]4CCN(C[C@H]5CCCN(C)C5)C4)CC3)n2)cc1", "note": "[Compound 466, 1-(3-(4-methoxyphenyl)-1,2,4-oxadiazol-5-yl)-N-(((S)-1-(((S)-1-methylpiperidin-3-yl)methyl)pyrrolidin-3-yl)methyl)piperidine-4-carboxamide]", "values": [{"measurement": "Myc Efficacy (−LogEC50)", "value": "+ (+ >3 and <5)"}]}, {"compound": "COCCCNC(=O)C1CCN(c2nc(-c3ccc(OC)cc3)no2)CC1", "note": "[Compound 112, 1-(3-(4-methoxyphenyl)-1,2,4-oxadiazol-5-yl)-N-(3-methoxypropyl)piperidine-4-carboxamide]", "values": [{"measurement": "Myc Efficacy (−LogEC50)", "value": "+ (+ >3 and <5)"}]}, {"compound": "COc1ccc(-c2noc(N3CCC(C(=O)NCC4CCN(Cc5ccc(C)s5)C4)CC3)n2)cc1", "note": "(stereo not shown) [Compound 385, 1-(3-(4-methoxyphenyl)-1,2,4-oxadiazol-5-yl)-N-((1-((5-methylthiophen-2-yl)methyl)pyrrolidin-3-yl)methyl)piperidine-4-carboxamide]", "values": [{"measurement": "Myc Efficacy (−LogEC50)", "value": "++ (++ ≥5 and <6)"}]}, {"compound": "COc1ccc(-c2noc(N3CCN(C(=O)N4CCOCC4)CC3)n2)cc1", "note": "[Compound 144, (4-(3-(4-methoxyphenyl)-1,2,4-oxadiazol-5-yl)piperazin-1-yl)(morpholino)methanone]", "values": [{"measurement": "Myc Efficacy (−LogEC50)", "value": "+ (+ >3 and <5)"}]}, {"compound": "COc1ccc(-c2noc(N3CCC(C(=O)NCC4CCN(CC(C)C)C4)CC3)n2)cc1", "note": "(stereo not shown) [Compound 374, N-((1-isobutylpyrrolidin-3-yl)methyl)-1-(3-(4-methoxyphenyl)-1,2,4-oxadiazol-5-yl)piperidine-4-carboxamide]", "values": [{"measurement": "Myc Efficacy (−LogEC50)", "value": "+ (+ >3 and <5)"}]}, {"compound": "COc1ccc(-c2noc(N3CCC(C(=O)NCCN(C)C)CC3)n2)cc1", "note": "[Compound 111, N-(2-(dimethylamino)ethyl)-1-(3-(4-methoxyphenyl)-1,2,4-oxadiazol-5-yl)piperidine-4-carboxamide]", "values": [{"measurement": "Myc Efficacy (−LogEC50)", "value": "+ (+ >3 and <5)"}]}, {"compound": "COc1ccc(-c2noc(N3CCC(C(=O)NCC4CCN(Cc5cc(C)ccn5)C4)CC3)n2)cc1", "note": "(stereo not shown) [Compound 326, 1-(3-(4-methoxyphenyl)-1,2,4-oxadiazol-5-yl)-N-((1-((4-methylpyridin-2-yl)methyl)pyrrolidin-3-yl)methyl)piperidine-4-carboxamide]", "values": [{"measurement": "Myc Efficacy (−LogEC50)", "value": "++ (++ ≥5 and <6)"}]}, {"compound": "COc1ccc(-c2noc(N3CCC(C(=O)NCC4CCN(CC5CCO5)C4)CC3)n2)cc1", "note": "(stereo not shown) [Compound 395, 1-(3-(4-methoxyphenyl)-1,2,4-oxadiazol-5-yl)-N-((1-(oxetan-2-ylmethyl)pyrrolidin-3-yl)methyl)piperidine-4-carboxamide]", "values": [{"measurement": "Myc Efficacy (−LogEC50)", "value": "+ (+ >3 and <5)"}]}, {"compound": "COc1ccc(-c2noc(N3CCC(C(=O)N[C@H]4c5ccccc5C[C@H]4O)CC3)n2)cc1", "note": "[Compound 259, N-((1S,2R)-2-hydroxy-2,3-dihydro-1H-inden-1-yl)-1-(3-(4-methoxyphenyl)-1,2,4-oxadiazol-5-yl)piperidine-4-carboxamide]", "values": [{"measurement": "Myc Efficacy (−LogEC50)", "value": "+ (+ >3 and <5)"}]}, {"compound": "COc1ccc(-c2noc(N3CCC(C(=O)NCC4CCN(Cc5cccc(F)c5)C4)CC3)n2)cc1", "note": "(stereo not shown) [Compound 332, N-((1-(3-fluorobenzyl)pyrrolidin-3-yl)methyl)-1-(3-(4-methoxyphenyl)-1,2,4-oxadiazol-5-yl)piperidine-4-carboxamide]", "values": [{"measurement": "Myc Efficacy (−LogEC50)", "value": "++ (++ ≥5 and <6)"}]}, {"compound": "COc1ccc(-c2noc(N3CCC(C(=O)NC4(c5ccccc5)CC4)CC3)n2)cc1", "note": "[Compound 264, 1-(3-(4-methoxyphenyl)-1,2,4-oxadiazol-5-yl)-N-(1-phenylcyclopropyl)piperidine-4-carboxamide]", "values": [{"measurement": "Myc Efficacy (−LogEC50)", "value": "+ (+ >3 and <5)"}]}, {"compound": "COc1ccc(-c2noc(N3CCC(C(=O)NC(c4ccccn4)C4CC4)CC3)n2)cc1", "note": "(stereo not shown) [Compound 280, N-(cyclopropyl(pyridin-2-yl)methyl)-1-(3-(4-methoxyphenyl)-1,2,4-oxadiazol-5-yl)piperidine-4-carboxamide]", "values": [{"measurement": "Myc Efficacy (−LogEC50)", "value": "+ (+ >3 and <5)"}]}, {"compound": "COc1ccc(-c2noc(N3CCN(C(C)=O)CC3)n2)cc1", "note": "[Compound 147, 1-(4-(3-(4-methoxyphenyl)-1,2,4-oxadiazol-5-yl)piperazin-1-yl)ethan-1-one]", "values": [{"measurement": "Myc Efficacy (−LogEC50)", "value": "+ (+ >3 and <5)"}]}]}
